# Key:
# [1] = target: hROMK (hKir1.1) (Homo sapiens (Human), UniProt P48048); assay: Thallium Flux Assay (ROMK channel functional thallium flux, FLIPR-Tetra); assay type: cell-based; settings: HEK293 cells stably expressing hROMK (hKir1.1); 30 min compound incubation
# From the text: (§1) Several assays may be used to measure functional inhibition of the ROMK channel by compounds of the instant invention. One assay that can be used is an electrophysiology assay that measures the electrical current that is generated as potassium permeates through the channel. Another ROMK functional assay makes use of the ability of thallium to permeate through open ROMK channels and increase the fluorescence of a dye previously loaded into the cells. Under control conditions, cells loaded with dye and exposed to thallium-containing medium display a time-dependent increase in fluorescence, the rate of which depends on number of functional channels. When cells are incubated in the presence of a channel inhibitor, the increase in fluorescence is attenuated in a concentration-dependent manner, and IC50 values of inhibition by compounds can be accurately determined. This assay has been established with cell lines expressing either human, or rat ROMK channels, and operates in 384-well format.
# HEK293 cells stably expressing hROMK (hKir1.1) were grown at 37° C. in a 10% CO2 humidified incubator in complete growth media: Dulbecco's Modified Eagle Medium supplemented with non-essential amino acids, Penicillin/Streptomycin/Glutamine, G418 and FBS. At >80% confluency, the media was aspirated from the flask and the sample was rinsed with 10 ml Calcium/Magnesium-free PBS. […] To dislodge the cell, the side of the flask was gently banged with a hand. The cells were triturated completely and then transferred to 25 ml complete media. The sample was then centrifuged at 1,500 rpm for 6 minutes, followed by resuspension in complete growth media and then cell concentration was determined. […] Under ideal growth conditions and appropriate tissue culture practices, this cell line is stable for 40-45 passages.
# • FluxOR™ Reagent (Component A) • FluxOR™ Assay Buffer (Component B)—10× Concentrate • PowerLoad™ Concentrate (Component C)—100× Concentrate • Probenecid (Component D) Lyophilized sample is kept at −20° C. Water soluble, 100× after solubilization in 1 ml water. […] Store at 4° C. • Thallium sulfate (Tl2SO4) Concentrate (Component G)—50 mM in water. […] Can be stored at room temperature • Stimulant Buffer (prepared at 5× final concentration in 1× FluxOR™Chloride-Free Buffer): 7.5 mM Thallium sulfate and 0.75 mM Potassium sulfate (to give a final assay concentration of 3 mM Thallium 0.3 mM Potassium). Store at 4° C. when not in use. If kept sterile, this solution is good for months. Assay Protocol—
# The ROMK channel functional thallium flux assay is performed in 384 wells, using the FLIPR-Tetra instrument. HEK-hKir1.1 cells are seeded in Poly-D-Lysine microplates and kept in a 37° C.-10% CO2 incubator overnight. On the day of the experiment, the growth media is replaced with the FluxOR™ reagent loading buffer and incubated, protected from light, at ambient temperature (23-25° C.) for 90 min. The loading buffer is replaced with assay buffer±test compound followed by 30 min incubation at ambient temperature, where the Thallium/Potassium stimulant is added to the microplate.
# • 1. Seed HEK-hKir1.1 cells (50 μl at 20,000 cells/well) in 384-well PDL coated Microplates • 2. Allow cells to adhere overnight in humidified 37° C./10% CO2 incubator • 3. Completely remove cell growth media from microplate and replace with 25 μl loading buffer • 4. Incubate Microplate at room temperature, protected form light, for 90 min • 5. Remove loading buffer and replace with 25 μl 1× Assay Buffer±test compound. • 6. Incubate microplate at room temperature, protected form light, for 30 min • 7. […] Excitation=400 nm, Emission=460 & 580 nm. Collect data for 10 min. Data Calculation—
# The fluorescence intensity of wells containing 3 μM of a standard control ROMK inhibitor of the present invention is used to define the ROMK-sensitive component of thallium flux. Fluorescence in the presence of test compounds is normalized to control values to provide % fluorescence change.
# [2] = target: Kir1.1 (ROMK1) (Homo sapiens (Human), UniProt P48048); assay: Electrophysiology Assay (whole cell voltage clamp, IonWorks Quattro); assay type: cell-based; settings: Chinese hamster ovary cells stably expressing Kir1.1; block during voltage step to 0 mV; 6 minutes compound incubation; read-out: EP Assay IC50
# Sequence of Kir1.1 (ROMK1) (P48048 whole entry, species assumed): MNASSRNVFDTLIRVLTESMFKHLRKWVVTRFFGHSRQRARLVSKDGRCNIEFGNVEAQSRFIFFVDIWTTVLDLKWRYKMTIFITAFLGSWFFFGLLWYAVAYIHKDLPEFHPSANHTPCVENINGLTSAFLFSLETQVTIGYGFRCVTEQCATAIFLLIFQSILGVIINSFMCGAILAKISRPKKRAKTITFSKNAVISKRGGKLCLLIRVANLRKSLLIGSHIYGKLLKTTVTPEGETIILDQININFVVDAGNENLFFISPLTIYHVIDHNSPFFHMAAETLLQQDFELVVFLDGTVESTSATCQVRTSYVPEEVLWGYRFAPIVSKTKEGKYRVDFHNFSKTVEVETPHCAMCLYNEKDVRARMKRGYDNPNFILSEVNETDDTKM
# From the text: as §1
# Chinese hamster ovary cells stably expressing Kir1.1 channels were maintained in T-75 flasks in cell culture media in a humidified 10% CO2 incubator at 37° C. Prior to an experiment, Kir1.1 expression was induced by overnight incubation with 1 mM sodium butyrate. […] After centrifugation, the cell pellet was resuspended in approximately 4.0 ml of bath solution and placed in the IonWorks® instrument. The intracellular solution consisted of (in mM): 80 K gluconate, 40 KCl, 20 KF, 3.2 MgCl2, 3 EGTA, 5 Hepes, pH 7.4. Electrical access to the cytoplasm was achieved by perforation in 0.13 mg/ml amphotericin B for 4 minutes.
# Voltage protocols and current recordings were performed using the IonWorks® HT software/hardware system. Currents were sampled at 1 kHz. No correction for liquid junction potentials was used. The test pulse, consisting of a 100 ms step to 0 mV from a holding potential of −70 mV, followed by a 100 ms voltage ramp from −70 mV to +70 mV, was applied before and after a 6 minutes compound incubation period. Test compounds were prepared by diluting DMSO stock solutions into the bath solution at 3× the final concentration and placed in the instrument in 96-well polypropylene plates. Current amplitudes were measured using the IonWorks® software.
# Sequence of hROMK (hKir1.1) (P48048 whole entry): as the sequence (P48048 whole entry, species assumed) above
compound,measurement,setting,value
"Cc1c([C@@H](O)CN2CC[C@@H](NS(=O)(=O)c3ccc(C#N)cc3)C2)ccc2c1COC2=O [Example 15, 4-Cyano-N—((R)-1-((R)-2-hydroxy-2-(4-methyl-1-oxo-1,3-dihydroisobenzofuran-5-yl)ethyl)pyrrolidin-3-yl)benzenesulfonamide]",IC50,[1],639 nM
same,IC50,[2],1390 nM
Cc1c([C@@H](O)CN2CCCC2CNc2ccc(C#N)cn2)ccc2c1COC2=O (some centres unmarked) [Example 18],IC50,[1],534 nM
same,IC50,[2],65 nM
"Cc1c(C(CO)NCC2CCCN2C[C@H](O)c2ccc3c(c2C)COC3=O)ccc2c1COC2=O (stereo partly drawn) [Example 4, 5-{(1R)-1-Hydroxy-2-[2-({[2-hydroxy-1-(4-methyl-1-oxo-1,3-dihydro-2-benzofuran-5-yl)ethyl]amino}methyl)pyrrolidin-1-yl]ethyl}-4-methyl-2-benzofuran-1(3H)-one]",IC50,[1],523 nM
same,IC50,[2],278 nM
"Cc1c([C@@H](O)CN[C@@H]2CCN(CC(O)c3ccc(C#N)cn3)C2)ccc2c1COC2=O (stereo partly drawn) [Example 12, 6-(1-Hydroxy-2-((R)-3-((R)-2-hydroxy-2-(4-methyl-1-oxo-1,3-dihydroisobenzofuran-5-yl)ethylamino)pyrrolidin-1-yl)ethyl)nicotinonitrile]",IC50,[1],542 nM
same,IC50,[2],1370 nM
"Cc1c([C@@H](O)CN2CC[C@@H](NCC(O)c3ccc(C#N)cn3)C2)ccc2c1COC2=O (stereo partly drawn) [Example 10, 6-(1-Hydroxy-2-((R)-1-((R)-2-hydroxy-2-(4-methyl-1-oxo-1,3-dihydroisobenzofuran-5-yl)ethyl)pyrrolidin-3-ylamino)ethyl)nicotinonitrile]",IC50,[1],504 nM
same,IC50,[2],2060 nM
"Cc1c([C@@H](O)CN2CCC(C)(CNc3ccc(C#N)cn3)C2)ccc2c1COC2=O (stereo partly drawn) [Example 21, 6-((1-((R)-2-Hydroxy-2-(4-methyl-1-oxo-1,3-dihydroisobenzofuran-5-yl)ethyl)-3-methylpyrrolidin-3-yl)methylamino)nicotinonitrile]",IC50,[1],547 nM
same,IC50,[2],103 nM
"Cc1c(C(O)CN2CC[C@@H](NC[C@H](O)c3ccc4c(c3C)COC4=O)C2)ccc2c1COC2=O (stereo in doubt) [Example 1, 5-{(1R)-1-Hydroxy-2-[(3R)-3-{[(2R)-2-hydroxy-2-(4-methyl-1-oxo-1,3-dihydro-2-benzofuran-5-yl)ethyl]amino}pyrrolidin-1-yl]ethyl}-4-methyl-2-benzofuran-1(3H)-one]",IC50,[1],414 nM
same,IC50,[2],595 nM

# Source: US9108947B2, “Inhibitors of the Renal Outer Medullary Potassium channel” (Merck Sharp & Dohme Corp., priority 2011, dated 2015)
